Tests used:
[1] = biological target: T1, PI3K-α (PIK3CA) wild-type (WT), p110α/p85α complex (Homo sapiens, UniProt P42336); assay: PI3K-alpha kinase (PIK3CA) biochemical activity, ADP-Glo, wild-type; settings: Soy PI lipid substrate
T1 construct: Recombinant, catalytically active human full length PIK3KA Wild-type and H1047R mutant; 6×His (N); purchased EMD Millipore Sigma 14-602M
Outline: (§1)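 ADP formation measured by ADP-Glo luminescence after reaction at 27 °C to about 10% ATP turnover, using 20 uM ATP, 50 uM PIP2diC8 or soy PI lipid, HEPES pH 7.4 with MgCl2. Enzyme (1-5 nM WT or H1047R p110α/p85α) and compound preincubated 1 h first; 10-point 1:3 curves fitted four-parameter for IC50.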

[2] = biological target: PI3K-α (PIK3CA) in MDA-MB-453 cells (Homo sapiens, UniProt P42336); assay: PI3K-alpha kinase (PIK3CA) in vitro cell based assay, MDA-MB-453 cells, SureFire Ultra AlphaLisa; settings: read-out: PI3K-α (PIK3CA) in vitro cell based assay IC50
PI3K-α (PIK3CA) in MDA-MB-453 cells, sequence (P27986 2-724): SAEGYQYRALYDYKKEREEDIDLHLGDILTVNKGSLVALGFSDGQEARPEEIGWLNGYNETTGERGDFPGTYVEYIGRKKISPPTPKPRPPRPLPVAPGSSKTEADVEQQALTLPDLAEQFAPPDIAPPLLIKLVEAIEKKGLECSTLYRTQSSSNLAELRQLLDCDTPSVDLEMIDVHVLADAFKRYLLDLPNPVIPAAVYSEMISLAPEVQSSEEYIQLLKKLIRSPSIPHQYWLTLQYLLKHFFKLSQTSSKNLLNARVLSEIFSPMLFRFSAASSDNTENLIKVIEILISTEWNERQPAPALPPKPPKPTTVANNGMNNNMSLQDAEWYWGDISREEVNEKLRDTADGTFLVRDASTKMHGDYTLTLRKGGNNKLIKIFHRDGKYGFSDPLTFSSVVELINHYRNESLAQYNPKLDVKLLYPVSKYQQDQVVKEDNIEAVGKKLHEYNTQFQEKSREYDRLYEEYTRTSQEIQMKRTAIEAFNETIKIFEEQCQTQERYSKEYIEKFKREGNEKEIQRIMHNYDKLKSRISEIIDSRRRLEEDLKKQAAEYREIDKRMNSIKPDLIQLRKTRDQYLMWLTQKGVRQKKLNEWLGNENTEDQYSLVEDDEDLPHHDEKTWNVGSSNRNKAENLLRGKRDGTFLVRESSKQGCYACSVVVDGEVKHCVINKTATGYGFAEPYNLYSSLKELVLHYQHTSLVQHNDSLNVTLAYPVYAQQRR
PI3K-α (PIK3CA) in MDA-MB-453 cells, sequence (P42336 whole entry): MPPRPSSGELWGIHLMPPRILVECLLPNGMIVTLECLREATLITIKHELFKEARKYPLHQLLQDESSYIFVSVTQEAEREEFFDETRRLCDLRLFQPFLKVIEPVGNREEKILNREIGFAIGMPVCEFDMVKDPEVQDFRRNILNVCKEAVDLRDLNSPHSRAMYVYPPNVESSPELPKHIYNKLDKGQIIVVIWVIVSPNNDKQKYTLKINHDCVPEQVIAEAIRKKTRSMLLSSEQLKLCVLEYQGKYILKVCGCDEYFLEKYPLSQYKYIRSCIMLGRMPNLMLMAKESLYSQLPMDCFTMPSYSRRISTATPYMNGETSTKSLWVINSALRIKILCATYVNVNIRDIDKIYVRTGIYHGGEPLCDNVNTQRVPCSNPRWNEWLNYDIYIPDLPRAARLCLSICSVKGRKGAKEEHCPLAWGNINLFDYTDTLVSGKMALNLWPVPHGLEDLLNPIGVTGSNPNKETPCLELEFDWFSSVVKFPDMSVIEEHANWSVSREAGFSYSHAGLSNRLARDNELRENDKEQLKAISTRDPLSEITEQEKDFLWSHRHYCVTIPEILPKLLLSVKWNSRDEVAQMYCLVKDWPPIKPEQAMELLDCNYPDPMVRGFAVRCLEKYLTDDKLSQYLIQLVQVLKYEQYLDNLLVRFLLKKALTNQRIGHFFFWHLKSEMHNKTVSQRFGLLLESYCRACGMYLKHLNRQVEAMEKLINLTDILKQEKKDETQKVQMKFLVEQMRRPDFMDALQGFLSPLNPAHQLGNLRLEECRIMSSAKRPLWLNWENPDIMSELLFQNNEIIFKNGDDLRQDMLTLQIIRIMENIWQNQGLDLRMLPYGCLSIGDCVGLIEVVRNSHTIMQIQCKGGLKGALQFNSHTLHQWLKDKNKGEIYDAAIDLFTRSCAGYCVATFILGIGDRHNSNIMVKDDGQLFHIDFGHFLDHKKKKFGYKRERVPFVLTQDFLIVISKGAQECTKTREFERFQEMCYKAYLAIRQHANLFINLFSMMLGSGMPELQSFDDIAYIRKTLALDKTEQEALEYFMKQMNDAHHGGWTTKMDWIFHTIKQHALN
Outline: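 Cells treated 3 h in serum-free MEM with 1 μg/mL insulin, 10-point 1:3 series in 0.3% DMSO, then lysed for SureFire Ultra AlphaLisa read-out. Inhibition normalized to DMSO (max) and 1 μM GDC-0032 (min); duplicate averages fitted by 4-parameter logistic for relative IC50.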

[3] = biological target: T2, PI3K-α (PIK3CA) H1047R mutant, p110α/p85α complex (Homo sapiens, UniProt P42336, H1047R); assay: PI3K-alpha kinase (PIK3CA) biochemical activity, ADP-Glo, H1047R mutant; settings: Soy PI lipid substrate
T2 construct: Recombinant, catalytically active human full length PIK3KA Wild-type and H1047R mutant; 6×His (N); purchased EMD Millipore Sigma 14-792M
T2 sequence (P42336 whole entry H1047R): as the sequence (P42336 whole entry) above, with H1047R counted along it
T2 sequence (P27986 whole entry partner): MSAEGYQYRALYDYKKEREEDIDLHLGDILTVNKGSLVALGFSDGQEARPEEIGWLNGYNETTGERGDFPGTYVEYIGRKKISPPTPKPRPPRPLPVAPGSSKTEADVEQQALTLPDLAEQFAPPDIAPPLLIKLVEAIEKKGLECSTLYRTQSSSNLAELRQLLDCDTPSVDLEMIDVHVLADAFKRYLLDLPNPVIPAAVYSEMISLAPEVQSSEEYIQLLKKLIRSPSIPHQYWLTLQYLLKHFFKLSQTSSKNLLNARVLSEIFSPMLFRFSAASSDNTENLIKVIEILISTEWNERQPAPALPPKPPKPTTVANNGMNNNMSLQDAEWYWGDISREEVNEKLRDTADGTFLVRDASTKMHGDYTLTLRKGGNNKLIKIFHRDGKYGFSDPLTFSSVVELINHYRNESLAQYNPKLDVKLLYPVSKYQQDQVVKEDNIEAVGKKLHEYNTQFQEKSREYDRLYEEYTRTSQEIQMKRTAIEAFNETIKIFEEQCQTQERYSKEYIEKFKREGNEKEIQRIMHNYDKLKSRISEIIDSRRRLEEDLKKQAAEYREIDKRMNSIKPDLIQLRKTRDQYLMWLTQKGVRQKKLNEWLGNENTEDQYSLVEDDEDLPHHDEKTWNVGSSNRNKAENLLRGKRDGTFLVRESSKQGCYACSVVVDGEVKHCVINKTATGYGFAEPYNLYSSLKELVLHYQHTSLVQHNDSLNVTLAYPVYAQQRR
Outline: as §1

Cc1cc([C@@H](C)Nc2cccc(F)c2C(=O)O)c2oc(-c3ccc4nn(C)cc4c3)c(C)c(=O)c2c1 [Example 227, 2-[[(1R)-1-[3,6-Dimethyl-2-(2-methylindazol-5-yl)-4-oxo-chromen-8-yl]ethyl]amino]-6-fluoro-benzoic acid] gave an IC50 [1] of 500 to 1000 nM, an IC50 [2] of less than 50 nM and an IC50 [3] of less than 500 nM.

From patent US11878970B2, “Allosteric chromenone inhibitors of phosphoinositide 3-kinase (PI3K) for the treatment of disease” (Petra Pharma Corporation, priority 2021, dated 2024)
